Laboratory results taken from US20150241429A1, “IRHOM2 INHIBITION FOR THE TREATMENT OF COMPLEMENT MEDIATED DISORDERS” (HOSPITAL FOR SPECIAL SURGERY, priority 2012, published 2015).

Legend:
macrophages = assay: Phagocytosis of IgG-opsonized red blood cells by macrophages; type: cell-based; conditions: inhibition of TACE with MM
Protocol: FIG. 5. (A) TACE-mediated cleavage of CD62L on the cell surface of freshly isolated human neutrophils (representative of 2 experiments). Surface expression of CD62L was assessed by flow cytometry following stimulation with 1 μg/mL of C5a or 25 ng/mL PMA for 20 min in the presence or absence of Marimastat (MM). […] Opsonized sheep red blood cells were stained with CFSE and total fluorescence intensity (TFI) was measured by flow cytometry, n=3, mean+/−SEM; * indicates p>0.05. (C) Release of reactive oxygen species by human monocytes when stimulated with C5a in the presence or absence of Marimastat. ROS was quantified by FACS by measuring the mean intensity of the ROS-reactive dye DHR. […] The Fc domains of pathogenic IgG initiate tissue damage by binding FcγR on effector cells and by activating complement, and FcγRs are critical for the pathogenesis of inflammatory arthritis in the K/B×N serum model (Ji et al., 2002a).

human monocytes = assay: C5a-stimulated oxidative burst (ROS release) in human monocytes; type: cell-based; conditions: C5a in presence or absence of Marimastat, ROS by FACS (DHR)
Protocol: FIG. 5. (A) TACE-mediated cleavage of CD62L on the cell surface of freshly isolated human neutrophils (representative of 2 experiments). Surface expression of CD62L was assessed by flow cytometry following stimulation with 1 μg/mL of C5a or 25 ng/mL PMA for 20 min in the presence or absence of Marimastat (MM). (B) Quantification of total sheep red blood cells phagocytosed by wild type or Tace−/− bone marrow macrophages. Opsonized sheep red blood cells were stained with CFSE and total fluorescence intensity (TFI) was measured by flow cytometry, n=3, mean+/−SEM; * indicates p>0.05. (C) Release of reactive oxygen species by human monocytes when stimulated with C5a in the presence or absence of Marimastat. ROS was quantified by FACS by measuring the mean intensity of the ROS-reactive dye DHR. […] The Fc domains of pathogenic IgG initiate tissue damage by binding FcγR on effector cells and by activating complement, and FcγRs are critical for the pathogenesis of inflammatory arthritis in the K/B×N serum model (Ji et al., 2002a).

iRhom2 = iRhom2 expression in ex vivo cultures of RA synovial macrophages; type: cell-based, human; conditions: RA synovial macrophages incubated overnight ± etanercept, n=8
Protocol: FIG. 2. Production of TNFα and other pro-inflammatory molecules is enhanced by TNFα shedding. (A) Quantification of mRNA levels of the indicated genes by qPCR following 30 min pre-treatment with 10 μg/ml etanercept and stimulation with C5a (representative of 3 experiments). (B) qPCR of iRhom2 mRNA in human monocytes treated for the indicated time periods with hTNFα (representative of 4 experiments). (C) Relative iRhom2 expression in RA synovial macrophages compared to macrophages from normal control patients, n=7 for control, and n=8 for RA patients (Nonparametric Mann-Whitney U test) (Gordon et al., 2012). (D) iRhom2 expression in synovial macrophages from RA patients following incubation overnight±etanercept, shown as percent of expression in freshly isolated cells, n=8. […] (F) Decreased TNFα release from C5a, IC and IC+C5a-stimulated cells treated with iR2 siRNA or TACE siRNA compared to untreated controls (representative of 3 independent experiments, mean±s.d. of samples stimulated in duplicates). *: p<0.05.
This, in turn, would also reduce the production of TNFα-dependent cytokines and of iRhom2, a crucial positive regulator of TACE (Adrain et al., 2012; McIlwain et al., 2012; Siggs et al., 2012).

For CNC(=O)[C@@H](NC(=O)[C@H](CC(C)C)[C@H](O)C(=O)NO)C(C)(C)C [MM, Marimastat], which “opsonization (internalization of IgG-opsonized red blood cells)” value (macrophages) is on record?
Its value is “did not alter”.

What about the C5a-stimulated oxidative burst (human monocytes) of the same compound?
Its C5a-stimulated oxidative burst is “did not alter”.

With etanercept as the compound, how does the iRhom2 expression (iRhom2) read?
Its iRhom2 expression is “substantially reduced”.
